Results taken from US9211262B2, “Injectable pharmaceutical compositions of an anthracenedione derivative with anti-tumoral activity” (CTI BioPharma Corp., priority 2002, dated 2015).

Legend:
[1] = Solubility in water and sodium chloride solutions; type: physicochemical
Text: However, the presence of sodium chloride requires the use of long lyophilisation cycles due to the low glass transition temperature observed.

[2] = Stability in solution in common solvents for parenteral administration; type: physicochemical; conditions: injectable liquid compositions
ascitic L1210 leukaemia = conditions: wide range of doses; cited from earlier work
YC-8 lymphoma = conditions: wide range of doses; cited from earlier work
[3] = in vivo; cited from earlier work

Question: Which “solubility in sodium chloride solutions” value ([1]; sodium chloride solutions 0.9 to 4%) does the source give for `NCCNc1ccc(NCCN)c2c1C(=O)c1ccncc1C2=O.O=C(O)/C=C\C(=O)O.O=C(O)/C=C\C(=O)O` [BBR 2778, 6,9-bis[(2-aminoethyl)amino]benzo[g]isoquinoline-5,10-dione dimaleate] here?
Answer: Its value is “progressively more soluble”.

Question: And the solubility in water ([1]; water)?
Answer: The solubility in water was “low solubility”.

Question: And the stability in solution [2]?
Answer: Its stability in solution is “problematic”.

Question: And the “activity compared with mitoxantrone” value (ascitic L1210 leukaemia)?
Answer: The value was “more active than mitoxantrone”.

Question: And the “activity compared with mitoxantrone” value (YC-8 lymphoma)?
Answer: The value was “more active than mitoxantrone”.

Question: And the cardiotoxicity [3]?
Answer: Its cardiotoxicity is “lower than that of other known drugs belonging to the same class”.
